Measurements from publication PMC10517258, “PYRIDOX(AM)INE 5′-PHOSPHATE OXIDASE3 of Arabidopsis thaliana maintains carbon/nitrogen balance in distinct environmental conditions” (Plant Physiology, 2023).

What was measured:
Format in all cases: biochemical
PDX3 (At5g49970) = target: T1, PDX3 (At5g49970) (Arabidopsis thaliana, UniProt Q9LTX3); assay: coupled spectrophotometric NADHX repair assay, […] and […] nm; details: epimerization by NNRE domain; coupled to NNRD; 1 mM ATP, 2 mM MgCl2, 5 mM KCl, Tris-HCl pH 8, 25 °C; racemic NADHX
T1 construct: gene PPOX1; cDNA without predicted transit peptide (residues 2 to 73 removed), N-terminal His6 tag, pET-28a, E. coli BL21(DE3); NNRE and POX domains both present
T1 sequence (Q9LTX3 74-530): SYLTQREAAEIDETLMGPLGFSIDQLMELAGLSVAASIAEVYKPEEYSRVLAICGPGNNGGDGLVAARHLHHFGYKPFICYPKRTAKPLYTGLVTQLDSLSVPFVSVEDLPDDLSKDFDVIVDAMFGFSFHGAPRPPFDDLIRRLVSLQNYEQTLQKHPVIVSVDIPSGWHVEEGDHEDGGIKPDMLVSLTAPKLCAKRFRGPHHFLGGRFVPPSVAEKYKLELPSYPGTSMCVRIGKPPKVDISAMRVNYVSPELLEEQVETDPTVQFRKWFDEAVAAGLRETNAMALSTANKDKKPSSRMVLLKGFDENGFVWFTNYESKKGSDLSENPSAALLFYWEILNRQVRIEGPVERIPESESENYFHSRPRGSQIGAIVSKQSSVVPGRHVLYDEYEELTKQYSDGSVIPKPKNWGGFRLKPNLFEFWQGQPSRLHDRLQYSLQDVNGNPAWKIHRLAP

NNRD (dehydratase) = target: T2, NNRD (dehydratase) (Arabidopsis thaliana, UniProt Q94AF2); assay: spectrophotometric dehydratase assay, […] and […] nm; details: 1 mM ATP, 2 mM MgCl2, 5 mM KCl, Tris-HCl pH 8, 25 °C; racemic NADHX
T2 construct: gene At5g19150; no transit peptide (residues 2 to 45 removed), C-terminal His6 tag, pET-24b, E. coli BL21(DE3); locus printed as At5g12150, probably a misprint of At5g19150
T2 sequence (Q94AF2 46-365): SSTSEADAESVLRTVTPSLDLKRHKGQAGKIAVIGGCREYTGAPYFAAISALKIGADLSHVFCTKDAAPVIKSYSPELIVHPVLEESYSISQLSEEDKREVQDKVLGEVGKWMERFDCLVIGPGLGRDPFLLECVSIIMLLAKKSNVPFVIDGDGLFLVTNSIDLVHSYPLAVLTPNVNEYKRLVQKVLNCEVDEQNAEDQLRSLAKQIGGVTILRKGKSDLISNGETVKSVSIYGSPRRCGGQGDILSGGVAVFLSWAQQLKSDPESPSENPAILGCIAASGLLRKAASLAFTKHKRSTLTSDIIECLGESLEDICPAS

[1] = target: T3, Arabidopsis NR2 (NIA2, At1g37130) (Arabidopsis thaliana, UniProt P11035); assay: nitrate reductase activity with APADH, absorbance at […] nm; details: electron donor replacing NADH, 0.1 mM; 10 mM potassium nitrate, 0.005 mM FAD, phosphate pH 7.5, 25 °C
T3 construct: commercial recombinant enzyme expressed and purified from Pichia pastoris
T3 sequence (P11035 1-917): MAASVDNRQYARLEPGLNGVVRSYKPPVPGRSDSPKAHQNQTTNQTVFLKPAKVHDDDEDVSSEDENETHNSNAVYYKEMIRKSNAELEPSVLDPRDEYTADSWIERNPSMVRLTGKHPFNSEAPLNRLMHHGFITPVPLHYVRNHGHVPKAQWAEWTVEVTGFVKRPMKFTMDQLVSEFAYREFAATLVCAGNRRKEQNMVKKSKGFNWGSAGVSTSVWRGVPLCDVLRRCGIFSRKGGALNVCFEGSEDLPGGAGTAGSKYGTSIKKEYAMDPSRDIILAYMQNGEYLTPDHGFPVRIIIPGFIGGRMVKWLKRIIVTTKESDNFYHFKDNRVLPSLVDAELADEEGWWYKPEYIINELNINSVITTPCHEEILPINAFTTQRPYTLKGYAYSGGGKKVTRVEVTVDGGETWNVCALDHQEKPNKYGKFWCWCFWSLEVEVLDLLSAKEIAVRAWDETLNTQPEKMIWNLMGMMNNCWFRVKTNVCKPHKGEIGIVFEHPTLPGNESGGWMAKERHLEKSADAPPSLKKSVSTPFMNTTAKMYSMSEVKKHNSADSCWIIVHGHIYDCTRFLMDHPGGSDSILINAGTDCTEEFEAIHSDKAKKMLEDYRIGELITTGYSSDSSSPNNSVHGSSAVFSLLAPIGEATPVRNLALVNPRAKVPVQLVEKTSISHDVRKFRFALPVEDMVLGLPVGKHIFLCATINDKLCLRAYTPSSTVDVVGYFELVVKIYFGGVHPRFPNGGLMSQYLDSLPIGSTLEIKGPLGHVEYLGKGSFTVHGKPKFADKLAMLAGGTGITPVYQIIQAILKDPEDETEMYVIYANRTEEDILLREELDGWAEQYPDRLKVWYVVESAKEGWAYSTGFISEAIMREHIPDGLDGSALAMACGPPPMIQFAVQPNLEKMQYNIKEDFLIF

With `NC(=O)C1=CN([C@@H]2O[C@H](COP(=O)(O)OP(=O)(O)OC[C@H]3O[C@@H](n4cnc5c(N)ncnc54)[C@H](O)[C@@H]3O)[C@@H](O)[C@H]2O)[C@H](O)CC1` (mixture of isomers) [(R)-NADHX] the “coupled spectrophotometric NADHX repair assay, 290 and 340 nm” value (PDX3 (At5g49970)) was “leads to epimerization of (R)-NADHX in the racemate to (S)-NADHX by the NNRE domain”.

For `NC(=O)C1=CN([C@@H]2O[C@H](COP(=O)(O)OP(=O)(O)OC[C@H]3O[C@@H](n4cnc5c(N)ncnc54)[C@H](O)[C@@H]3O)[C@@H](O)[C@H]2O)[C@@H](O)CC1` (mixture of isomers) [(S)-NADHX], the “spectrophotometric dehydratase assay, 290 and 340 nm” value (NNRD (dehydratase)) was “(S)-NADHX within a racemic mixture of NADHX is dehydrated to NADH by NNRD”.

`CC(=O)C1=CN([C@@H]2O[C@H](COP(=O)(O)OP(=O)(O)OC[C@H]3O[C@@H](n4cnc5c(N)ncnc54)[C@H](O)[C@@H]3O)[C@@H](O)[C@H]2O)C=CC1` [APADH] was tested, and the “nitrate reductase activity with APADH, absorbance at 363 nm” value [1] was “the latter was replaced with its analog, 3-acetylpyridine-adenine dinucleotide (APADH”.
